Test results reported in patent US20230105108A1, “COMPOUNDS FOR THE TREATMENT OF BACTERIAL INFECTIONS AND POTENTIATION OF ANTIBIOTICS” (GEORGIA STATE UNIVERSITY RESEARCH FOUNDATION, INC., priority 2019, published 2023).
Counter-ions that a name gives are not always drawn. Like-named read-outs stand apart in the source and are kept apart here. Marks after values point to notes of the source that are not given here. Blank lines part the entries; values can stand above or below the compound they belong to.

Experiments:
E. coli (ATCC 25922) = assay: MIC determination, sensitization fold and FIC index on E. coli; assay type: cell-based; details: for MIC of AB with MD-124: MD-124 concentration 5 μg/ml; for MIC: Escherichia coli, ATCC25922, 24 h
Procedure, shortened: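 MICs read by OD600 as >90% growth inhibition after two-fold rifampicin dilutions, 5×10^5 CFU/ml E. coli, 24 h, 37 °C, shaken, cation-adjusted Mueller Hinton II broth.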

[1] = system: A. baumannii (ATCC 17978); assay: MIC, sensitization fold and FIC index on A. baumannii; assay type: cell-based; details: A. baumannii towards the antibiotic
K. pneumoniae (43816) = assay: MIC, sensitization fold and FIC index on K. pneumoniae; assay type: cell-based; details: for MIC of AB with 5 μg/ml MD-124: K. pneumoniae; for Sensitization fold with 5 μg/ml MD-124: K. pneumoniae towards the antibiotic
HEK293 cells = assay: Cytotoxicity on mammalian cells (CCK-8), HEK293; assay type: cell-based; details: for CC50: HEK293 cell line, 24 h; for IC50: Homo sapiens, HEK293
Protocol: (§1) Cytotoxicity test of bacterial sensitizers on mammalian cells. Cell viability was assessed by using Cell Counting Kit-8 (CCK-8, Dojindo, Japan). HEK293 or NIH3T3 cells were seeded in a 96-well plate one day before the experiment to reach 80% confluency. Cells were then incubated with various concentration of bacterial sensitizers at 37° C. with 5% CO2 for 24 h, then 10 μL of CCK-8 solution was added to each well, and the plate was incubated for an additional at 37° C. 2 h with 5% CO2. The optical density at 450 nm was recorded by plate reader; and the results were calculated as a percentage of viability compared with the untreated control.

NIH3T3 cells = assay: Cytotoxicity on mammalian cells (CCK-8), NIH3T3; assay type: cell-based; details: 3T3 cell line; 24 h
Protocol: as §1

[2] = IC50 of Table 7 (cell line not stated); assay type: cell-based
[3] = Cytotoxicity in H9c2 cells (CCK-8); assay type: cell-based; details: rat, H9c2 cells; H9c2 cell line
Procedure, shortened: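 H9c2 cells were grown in DMEM with 10% FBS, seeded the day before, and exposed to a range of di-amidine concentrations for 24 h at 37 °C, 5% CO2. Viability was read by CCK-8 after 3 h at 37 °C as absorbance at 450 nm.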

B. subtilis = assay: MIC determination and sensitization fold on B. subtilis; assay type: cell-based; details: B. subtilis; for Sensitization fold: erythromycin; for MIC: Bacillus subtilis, 24 h, compound alone, read-out: MIC
MRSA (ATCC 33592) = assay: MIC determination and sensitization fold on MRSA; assay type: cell-based, methicillin-resistant Staphylococcus aureus; details: MRSA, rifampicin
Protocol: Bacteria strains: E. coli (ATCC 25922), A. baumannii (ATCC 17978), K. pneumoniae (43816), S. maltophilia (ATCC 31559), S. typhimurium (ATCC 14028), C. werkmanii (ATCC 51114), S. aureus (ATCC 12600) and methicillin-resistant Staphylococcus aureus (MRSA, ATCC 33592) strains were purchased from ATCC. NR698 was provided.
Bacteria culture and MICs determination: Gram-negative bacteria were cultured in Mueller Hinton II cation-adjusted broth. Gram-positive bacteria were cultured in LB broth. Mycobacterium smegmatis was cultured in Middlebrook 7H9 Broth. MICs of antibiotics itself were determined by performing two-fold serial dilutions of antibiotics. MICs of antibiotics in the presence of bacterial sensitizers were determined by performing two-fold serial dilutions of antibiotics with or without a constant concentration of bacterial sensitizers. The MICs tests were performed on 96-well plates with a final volume of 200 μl Mueller Hinton II cation-adjusted broth in each well. Each well was inoculated with 5×10^5 CFU/ml bacteria and was incubated for 24 h at 37° C. with continuous shaking of 200 rpm. The bacterial density was then determined by OD600. Bacterial growth %=OD600 of antibiotic treatment group/OD600 of antibiotic non-treatment group. MICs was determined as the concentrations that inhibit more than 90% of bacteria growth.
Sensitization fold determination and FIC index calculations: Sensitization fold=MIC of antibiotic only/MIC of antibiotic with bacterial sensitizer. […] Since the MICs were determined by performing two-fold serial dilutions of antibiotic, so the sensitization fold can is the times of 2.
Bacteria strains (as indicated in Table 5B) were cultured with rifampicin at various concentrations in the presence or absence of 10 μM of the indicated compound for 20 h at 37° C. The MIC, sensitization, cytotoxicity, and MIC on mycobacteria were tested according to methods described herein. […] The sensitization activities of compounds on MRSA were tested using rifampicin. The sensitization activities of compounds on E. coli were tested using rifampicin.

M. smegmatis = assay: MIC on mycobacteria; assay type: cell-based, Mycobacterium smegmatis; details: Mycolicibacterium smegmatis, read-out: MIC on mycobacteria
[4] = Cytotoxicity on mammalian cells (CCK-8), HEK293; assay type: cell-based; details: human, HEK293 cells; HEK293 cell line; 24 h
Protocol: as §1

[5] = Cytotoxicity on mammalian cells (CCK-8), NIH3T3; assay type: cell-based; details: mouse, NIH3T3 cells, 3T3 cell line
Protocol: as §1

[6] = system: NDM-1 expressing E. coli strain; assay: microbe, parasite or virus in culture; assay type: cell-based; details: NDM-1 expressing E. coli towards the antibiotic
[7] = E. coli towards the antibiotic, MD-124 5 μg/ml
[8] = E. coli (wild type), antibiotic alone, read-out: MIC of AB only
[9] = 10 μM compound, rifampicin as the antibiotic (Table 6)
[10] = E. coli, rifampicin, compound at 10 μM
[11] = E. coli, rifampicin, 10 μg/ml bacterial sensitizer
[12] = E. coli, rifampicin, compound at 25 μM

SMILES: CC(=O)O[C@H]1C[C@@]2(C)[C@@H](C[C@@H](O)[C@H]3[C@@]4(C)CC[C@@H](O)[C@@H](C)[C@@H]4CC[C@@]32C)/C1=C(\CCC=C(C)C)C(=O)O [Fusidic acid, reference compound]
Sensitization fold (E. coli (ATCC 25922); [7]): 32 fold
MIC of AB with MD-124 (E. coli (ATCC 25922); E. coli): 6.25 µg/mL
MIC (E. coli (ATCC 25922); [8]): > 200 µg/mL
Sensitization fold with 5 μg/ml MD-124 [1]: 128 fold
MIC of AB with 5 μg/ml MD-124 (K. pneumoniae (43816)): 25 µg/mL
Sensitization fold with 5 μg/ml MD-124 (K. pneumoniae (43816)): 4 fold

SMILES: COc1cc(OCc2ccc(C(=N)N)cc2)cc(OCc2ccc(C(=N)N)cc2)c1 [MD-126, 4,4′-(((5-methoxy-1,3-phenylene)bis(oxy))bis(methylene))dibenzimidamide dihydrochloride]
Sensitization fold (E. coli (ATCC 25922); [9]): 2 fold
Sensitization fold (E. coli (ATCC 25922); [10]): 2-fold at 10 μM
MIC (E. coli (ATCC 25922)): > 50 µM
CC50 (HEK293 cells): 100 µM
IC50 (HEK293 cells): 100 µM
CC50 (NIH3T3 cells): 100 µM

IC50 [2]: 12 µM
SMILES: N=C(N)N/N=C/c1ccc(-c2ccc(-c3ccc(/C=N/NC(=N)N)cc3)s2)cc1 [DB1079]
Sensitization fold (E. coli (ATCC 25922); E. coli, rifampicin, 5 μg/ml bacterial sensitizer): 64^b fold

SMILES: N=C(N)c1ccc(-c2ccc(-c3ccc(C(=N)N)cc3)[se]2)cc1 [DB1213]
Sensitization fold (E. coli (ATCC 25922); [11]): 32^a fold
IC50 [2]: 50 µM

SMILES: Cc1cc(COc2ccc(C(=N)NC(C)C)cc2)cc(COc2ccc(C(=N)NC(C)C)cc2)c1 [MD-102, 4,4′-(((5-methyl-1,3-phenylene)bis(methylene))bis(oxy))bis(N-isopropylbenzimidamide) dihydrochloride]
CC50 at 24 h [3]: > 100 µM
Sensitization fold (E. coli (ATCC 25922); [9]): 1 fold
Sensitization (E. coli (ATCC 25922); E. coli, rifampicin, compound up to 25 μM): No effect up to 25 μM.
MIC (E. coli (ATCC 25922)): 50 µM
sensitization activity (E. coli (ATCC 25922); rifampicin, compound at up to 10 μM): no sensitization activity
Sensitization fold (B. subtilis; compound at 2 μM): 4-fold at 2 μM
Sensitization fold (MRSA (ATCC 33592); compound at 4 μM): 32-fold at 4 μM
MIC (M. smegmatis): 3 µM
CC50 at 24 h [4]: > 100 µM
CC50 at 24 h [5]: > 100 µM

SMILES: N=C(N)c1ccc(OCc2cc(COc3ccc(C(=N)N)cc3)cc(COc3ccc(C(=N)N)cc3)c2)cc1 [MD-107, 4,4′,4″-((benzene-1,3,5-triyltris(methylene))tris(oxy))tribenzimidamide trihydrochloride]
CC50 at 24 h [3]: > 100 µM
Sensitization fold (E. coli (ATCC 25922); E. coli, rifampicin, compound at 12.5 μM): 4-fold at 12.5 μM
Sensitization fold (E. coli (ATCC 25922); [12]): 8-fold at 25 μM
MIC (E. coli (ATCC 25922)): 50 µM
Sensitization fold (B. subtilis; compound at 6 μM): 8-fold at 6 μM
MIC (B. subtilis): 12.5 µM
MIC (M. smegmatis): 3 to 6 µM
CC50 at 24 h [4]: > 100 µM
CC50 at 24 h [5]: > 100 µM

SMILES: O=C(N[C@H](CO)[C@H](O)c1ccc([N+](=O)[O-])cc1)C(Cl)Cl [Chloramphenicol]
Sensitization fold (E. coli (ATCC 25922); [7]): 8 fold
MIC of AB with MD-124 (E. coli (ATCC 25922); E. coli): 1.6 µg/mL
MIC (E. coli (ATCC 25922); read-out: MIC of AB only): 12.5 µg/mL
Sensitization fold with 5 μg/ml MD-124 [1]: 4 fold
MIC of AB with 5 μg/ml MD-124 (K. pneumoniae (43816)): 1.6 µg/mL
Sensitization fold with 5 μg/ml MD-124 (K. pneumoniae (43816)): >64 fold
Sensitization fold with 5 μg/ml MD-124 [6]: 8 fold

SMILES: COc1cc(C(=N)N)ccc1OCc1cc(C)cc(COc2ccc(C(=N)N)cc2OC)c1 [MD-103, 4,4′-(((5-methyl-1,3-phenylene)bis(methylene))bis(oxy))bis(3-methoxybenzimidamide) dihydrochloride]
CC50 at 24 h [3]: > 100 µM
Sensitization fold (E. coli (ATCC 25922); [9]): 2 fold
Sensitization fold (E. coli (ATCC 25922); [10]): 2-fold at 10 μM
Sensitization fold (E. coli (ATCC 25922); [12]): 4-fold at 25 μM
MIC (E. coli (ATCC 25922)): 50 µM
Sensitization fold (MRSA (ATCC 33592); compound at 6 μM): 2 to 4-fold at 6 μM
Sensitization fold (MRSA (ATCC 33592); compound at 12 μM): 8 to 16-fold at 12 μM,
MIC (M. smegmatis): 12.5 µM
CC50 (HEK293 cells): 100 µM
IC50 (HEK293 cells): 100 µM
CC50 (NIH3T3 cells): 100 µM

SMILES: Cc1cc(OCc2ccc(C(=N)N)cc2)cc(OCc2ccc(C(=N)N)cc2)c1 [MD-109, 4,4′-(((5-methyl-1,3-phenylene)bis(oxy))bis(methylene))dibenzimidamide dihydrochloride]
Sensitization fold (E. coli (ATCC 25922); [9]): 8 fold
Sensitization fold (E. coli (ATCC 25922); [10]): 8-fold at 10 μM
Sensitization fold (E. coli (ATCC 25922); [12]): 32-fold at 25 μM
MIC (E. coli (ATCC 25922)): 100 µM
Sensitization fold (B. subtilis; compound at 12 μM): 32-fold at 12 μM
MIC (B. subtilis): 50 µM
CC50 (HEK293 cells): 100 µM
IC50 (HEK293 cells): 100 µM
CC50 (NIH3T3 cells): 100 µM

SMILES: CCC[C@@H]1C[C@@H](C(=O)N[C@@H]([C@H]2O[C@H](SC)[C@H](O)[C@@H](O)[C@H]2O)[C@H](C)Cl)N(C)C1 [Clindamycin, reference compound]
MIC of AB with MD-124 (E. coli (ATCC 25922); E. coli): 3.2 µg/mL
MIC (E. coli (ATCC 25922); [8]): 200 µg/mL
MIC of AB with 5 μg/ml MD-124 (K. pneumoniae (43816)): 25 µg/mL

SMILES: Cc1cc(COc2ccc(C(=N)N)cc2F)cc(COc2ccc(C(=N)N)cc2F)c1 [MD-120, 4,4′-(((5-methyl-1,3-phenylene)bis(methylene))bis(oxy))bis(3-fluorobenzimidamide) dihydrochloride]
Sensitization fold (E. coli (ATCC 25922); [9]): 32 fold
Sensitization fold (E. coli (ATCC 25922); [10]): 32-fold at 10 μM
Sensitization fold (E. coli (ATCC 25922); [12]): 64-fold at 25 μM
MIC (E. coli (ATCC 25922)): 100 µM
Sensitization fold (MRSA (ATCC 33592); compound at 6 μM): 4-fold at 6 μM
CC50 (HEK293 cells): 100 µM
IC50 (HEK293 cells): 100 µM
CC50 (NIH3T3 cells): 100 µM

IC50 [2]: 100 µM
SMILES: N=C(N)Nc1ccc(-c2ccc(-c3nc4ccc(NC(=N)N)cc4[nH]3)o2)cc1 [DB704]
Sensitization fold (E. coli (ATCC 25922); [11]): 16^a fold

MIC (M. smegmatis; M. smegmatis): 6 to 12 µM
SMILES: N=C(N)c1ccc(OCc2cccc(COc3ccc(C(=N)N)cc3F)c2F)c(F)c1 [DB2558, 1,3-Bis {(4-amidino-2-fluoro)-phenoxymethyl}-2-fluorobenzene dihydrochloride]
CC50 at 24 h [3]: 50 µM
Sensitization fold (E. coli (ATCC 25922); E. coli, rifampicin, compound at 12 μM): 4-fold at 12 μM.
Sensitization fold (E. coli (ATCC 25922); [12]): 8-fold at 25 μM;
MIC (E. coli (ATCC 25922); E. coli, compound alone, read-out: MIC): 50 µM
CC50 (HEK293 cells): 100 µM
CC50 (NIH3T3 cells): 100 µM
